# Experimental data from PubChem BioAssay (NCI).
#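 Where inhibition never reached the appropriate level, the endpoint shown equals the highest concentration tested. Otherwise, values were interpolated linearly from a five-concentration, 48-hour dose response in 96-well plates. TGI is the concentration that stops growth completely.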
# Key:
# Assay in all cases: NCI-60 cell line screen, 48 h
# 786-0 renal = system: 786-0 renal
# A498 renal = system: A498 renal
# A549 NSCLC = system: A549 NSCLC
# ACHN renal = system: ACHN renal
# BT-549 breast = system: BT-549 breast
# CAKI-1 renal = system: CAKI-1 renal
# CCRF-CEM leukemia = system: CCRF-CEM leukemia
# COLO 205 colon = system: COLO 205 colon
# DU-145 prostate = system: DU-145 prostate
# EKVX NSCLC = system: EKVX NSCLC
# HCT-116 colon = system: HCT-116 colon
# HCT-15 colon = system: HCT-15 colon
# HL-60(TB) leukemia = system: HL-60(TB) leukemia
# HOP-62 NSCLC = system: HOP-62 NSCLC
# HOP-92 NSCLC = system: HOP-92 NSCLC
# HS 578T breast = system: HS 578T breast
# HT29 colon = system: HT29 colon
# IGROV1 ovarian = system: IGROV1 ovarian
# K-562 leukemia = system: K-562 leukemia
# KM12 colon = system: KM12 colon
# LOX IMVI melanoma = system: LOX IMVI melanoma
# M14 melanoma = system: M14 melanoma
# MALME-3M melanoma = system: MALME-3M melanoma
# MDA-MB-231 breast = system: MDA-MB-231 breast
# MDA-MB-435 = system: MDA-MB-435
# MDA-N = system: MDA-N
# MOLT-4 leukemia = system: MOLT-4 leukemia
# NCI-H226 lung = system: NCI-H226 lung
# NCI-H23 lung = system: NCI-H23 lung
# NCI-H460 lung = system: NCI-H460 lung
# NCI-H522 lung = system: NCI-H522 lung
# NCI/ADR-RES ovarian = system: NCI/ADR-RES ovarian
# OVCAR-3 ovarian = system: OVCAR-3 ovarian
# OVCAR-4 ovarian = system: OVCAR-4 ovarian
# OVCAR-5 ovarian = system: OVCAR-5 ovarian
# OVCAR-8 ovarian = system: OVCAR-8 ovarian
# PC-3 prostate = system: PC-3 prostate
# RPMI-8226 leukemia = system: RPMI-8226 leukemia
# RXF 393 renal = system: RXF 393 renal
# SF-268 CNS = system: SF-268 CNS
# SF-295 CNS = system: SF-295 CNS
# SF-539 CNS = system: SF-539 CNS
# SK-MEL-2 melanoma = system: SK-MEL-2 melanoma
# SK-MEL-28 melanoma = system: SK-MEL-28 melanoma
# SK-MEL-5 melanoma = system: SK-MEL-5 melanoma
# SK-OV-3 ovarian = system: SK-OV-3 ovarian
# SN12C renal = system: SN12C renal
# SNB-19 CNS = system: SNB-19 CNS
# SR leukemia = system: SR leukemia
# SW-620 colon = system: SW-620 colon
# T-47D breast = system: T-47D breast
# TK-10 renal = system: TK-10 renal
# U251 CNS = system: U251 CNS
# UACC-257 melanoma = system: UACC-257 melanoma
# UACC-62 melanoma = system: UACC-62 melanoma
# UO-31 renal = system: UO-31 renal
compound,measurement,setting,value
C[C@H](NC1=CC(=O)C(N[C@@H](C)[C@H](O)c2ccccc2)=CC1=O)[C@H](O)c1ccccc1,TGI,786-0 renal,> 100 µM
same,TGI,A498 renal,> 100 µM
same,TGI,A549 NSCLC,> 100 µM
same,TGI,ACHN renal,> 100 µM
same,TGI,BT-549 breast,> 100 µM
same,TGI,CAKI-1 renal,> 100 µM
same,TGI,CCRF-CEM leukemia,> 100 µM
same,TGI,COLO 205 colon,> 100 µM
same,TGI,DU-145 prostate,> 100 µM
same,TGI,EKVX NSCLC,> 100 µM
same,TGI,HCT-116 colon,> 100 µM
same,TGI,HCT-15 colon,> 100 µM
same,TGI,HL-60(TB) leukemia,> 100 µM
same,TGI,HOP-62 NSCLC,> 100 µM
same,TGI,HOP-92 NSCLC,> 100 µM
same,TGI,HS 578T breast,> 100 µM
same,TGI,HT29 colon,63.7 µM
same,TGI,IGROV1 ovarian,> 100 µM
same,TGI,K-562 leukemia,> 100 µM
same,TGI,KM12 colon,> 100 µM
same,TGI,LOX IMVI melanoma,> 100 µM
same,TGI,M14 melanoma,> 100 µM
same,TGI,MALME-3M melanoma,> 100 µM
same,TGI,MDA-MB-231 breast,> 100 µM
same,TGI,MDA-MB-435,> 100 µM
same,TGI,MDA-N,> 100 µM
same,TGI,MOLT-4 leukemia,> 100 µM
same,TGI,NCI-H226 lung,> 100 µM
same,TGI,NCI-H23 lung,> 100 µM
same,TGI,NCI-H460 lung,> 100 µM
same,TGI,NCI-H522 lung,> 100 µM
same,TGI,NCI/ADR-RES ovarian,> 100 µM
same,TGI,OVCAR-3 ovarian,> 100 µM
same,TGI,OVCAR-4 ovarian,> 100 µM
same,TGI,OVCAR-5 ovarian,> 100 µM
same,TGI,OVCAR-8 ovarian,> 100 µM
same,TGI,PC-3 prostate,> 100 µM
same,TGI,RPMI-8226 leukemia,> 100 µM
same,TGI,RXF 393 renal,> 100 µM
same,TGI,SF-268 CNS,> 100 µM
same,TGI,SF-295 CNS,> 100 µM
same,TGI,SF-539 CNS,> 100 µM
same,TGI,SK-MEL-2 melanoma,> 100 µM
same,TGI,SK-MEL-28 melanoma,> 100 µM
same,TGI,SK-MEL-5 melanoma,> 100 µM
same,TGI,SK-OV-3 ovarian,> 100 µM
same,TGI,SN12C renal,> 100 µM
same,TGI,SNB-19 CNS,> 100 µM
same,TGI,SR leukemia,> 100 µM
same,TGI,SW-620 colon,> 100 µM
same,TGI,T-47D breast,> 100 µM
same,TGI,TK-10 renal,> 100 µM
same,TGI,U251 CNS,> 100 µM
same,TGI,UACC-257 melanoma,> 100 µM
same,TGI,UACC-62 melanoma,> 100 µM
same,TGI,UO-31 renal,> 100 µM
